Results reported in US20230284621A1, “HERBICIDAL COMPOSITIONS” (PBI-Gordon Corporation, priority 2022, published 2023).

Columns and labels:
[1] = Chemical stability, ambient storage; format: physicochemical; settings: for 17 Months (% Change from Initial): active ingredient in Professional Formulation 1, 17 Months (title: 14 Months); for 16 Months (% Change from Initial): active ingredient in Professional Formulation 2
Protocol: (§1) Formulations were prepared as described in Example I. Physically stable formulations (no settling or physical issues observed) were tested for chemical stability over various time spans and temperature conditions.

[2] = Chemical stability, accelerated 40° C. storage; format: physicochemical; settings: for 30 Days @ 40° C. (% Change from Initial): 30 days at 40° C.; for 42 Days @ 40° C. (% Change from Initial): 42 days at 40° C.
Protocol: as §1
Formulations were prepared as described in Example III. Physically stable formulations (no settling or physical issues observed) were tested for chemical stability over various time spans and temperature conditions.

[3] = active ingredient in Consumer Formulation 3
[4] = active ingredient in Professional Formulation 1
[5] = active ingredient in Professional Formulation 2
[6] = active ingredient in Ready to Use Formulation 3
[7] = active ingredient in Ready-to-Use Formulation 2

Cc1c(C(=O)c2c[nH]n(C)c2=O)ccc(S(C)(=O)=O)c1C1=NOCC1 [Topramazone, 4-[3-(4,5-dihydro-1,2-oxazol-3-yl)-2-methyl-4-methylsulfonylbenzoyl]-2-methyl-1H-pyrazol-3-one]
17 Months (% Change from Initial) [1]: −4.79%
16 Months (% Change from Initial) [1]: −4.40%
30 Days @ 40° C. (% Change from Initial) [2, 3]: −1.53%
42 Days @ 40° C. (% Change from Initial) [2, 4]: −3.89%
42 Days @ 40° C. (% Change from Initial) [2, 5]: +1.14%
30 Days @ 40° C. (% Change from Initial) [2, 6]: −0.46%
30 Days @ 40° C. (% Change from Initial) [2, 7]: 0.00%

COc1c(Cl)ccc(Cl)c1C(=O)O [Dicamba acid, 3,6-dichloro-2-methoxybenzoic acid]
17 Months (% Change from Initial) [1]: +2.04%
16 Months (% Change from Initial) [1]: −0.80%
30 Days @ 40° C. (% Change from Initial) [2, 3]: 0.00%
42 Days @ 40° C. (% Change from Initial) [2, 4]: −4.11%
42 Days @ 40° C. (% Change from Initial) [2, 5]: 0.00%
30 Days @ 40° C. (% Change from Initial) [2, 6]: −1.79%
30 Days @ 40° C. (% Change from Initial) [2, 7]: +1.10%

O=C(O)COc1ccc(Cl)cc1Cl [2,4-D acid]
17 Months (% Change from Initial) [1]: +2.71%
16 Months (% Change from Initial) [1]: −2.02%
30 Days @ 40° C. (% Change from Initial) [2, 3]: −0.21%
42 Days @ 40° C. (% Change from Initial) [2, 4]: +0.66%
42 Days @ 40° C. (% Change from Initial) [2, 5]: +1.38%
30 Days @ 40° C. (% Change from Initial) [2, 6]: −.21%
30 Days @ 40° C. (% Change from Initial) [2, 7]: +0.83%

Cc1nn(-c2cc(NS(C)(=O)=O)c(Cl)cc2Cl)c(=O)n1C(F)F [Sulfentrazone, N-[2,4-dichloro-5-[4-(difluoromethyl)-3-methyl-5-oxo-1,2,4-triazol-1-yl]phenyl]methanesulfonamide]
17 Months (% Change from Initial) [1]: +3.60%
16 Months (% Change from Initial) [1]: +5.71%
30 Days @ 40° C. (% Change from Initial) [2, 3]: 0.00%
42 Days @ 40° C. (% Change from Initial) [2, 4]: +1.30%
42 Days @ 40° C. (% Change from Initial) [2, 5]: +0.29%
30 Days @ 40° C. (% Change from Initial) [2, 6]: −0.33%
30 Days @ 40° C. (% Change from Initial) [2, 7]: −0.67%
